Data reported in the NIST ThermoML archive (doi:10.1021/je800348s).
± gives the expanded uncertainty stated by the source.

Legend:
[1] = 101 kPa, Liquid; for mass density: Vibrating tube method
[2] = xn = mol fraction of the nth substance listed; conditions: 101 kPa, Liquid, x1 = 1; for mass density: Vibrating tube method

Row | viscosity ([1]; 293.15 K) | mass density ([1]; 293.15 K) | viscosity ([1]; 298.15 K) | mass density ([1]; 298.15 K) | viscosity ([1]; 303.15 K) | mass density ([1]; 303.15 K) | viscosity ([1]; 313.15 K) | mass density ([1]; 313.15 K) | mass density ([2]; 293.15 K) | viscosity ([2]; 293.15 K) | mass density ([2]; 298.15 K) | viscosity ([2]; 298.15 K) | mass density ([2]; 303.15 K) | viscosity ([2]; 303.15 K) | mass density ([2]; 313.15 K) | viscosity ([2]; 313.15 K) | SMILES
1 | 3.064 ± 0.077 mPa·s | 935.2 ± 8 kg/m3 | 2.74 ± 0.069 mPa·s | 931.4 ± 8 kg/m3 | 2.514 ± 0.063 mPa·s | 927.7 ± 8 kg/m3 | 2.27 ± 0.057 mPa·s | 922.2 ± 8 kg/m3 |  |  |  |  |  |  |  |  | C1C[C@@H]2[C@H]3CC[C@H](C3)[C@@H]2C1 [exo-tetrahydrodicyclopentadiene]
2 | 0.5439 ± 0.015 mPa·s | 702.5 ± 8 kg/m3 | 0.5177 ± 0.015 mPa·s | 698.5 ± 8 kg/m3 | 0.4795 ± 0.014 mPa·s | 694.5 ± 8 kg/m3 | 0.4358 ± 0.013 mPa·s | 686.3 ± 8 kg/m3 |  |  |  |  |  |  |  |  | CCCCCCCC [octane]
3 |  |  |  |  |  |  |  |  | 702.5 ± 8 kg/m3 | 0.5439 ± 0.015 mPa·s | 698.5 ± 8 kg/m3 | 0.5177 ± 0.015 mPa·s | 694.5 ± 8 kg/m3 | 0.4795 ± 0.014 mPa·s | 686.3 ± 8 kg/m3 | 0.4358 ± 0.013 mPa·s | CCCCCCCC [octane] + C1C[C@@H]2[C@H]3CC[C@H](C3)[C@@H]2C1
4 | 0.9491 ± 0.024 mPa·s | 730 ± 8 kg/m3 | 0.8434 ± 0.022 mPa·s | 726.4 ± 8 kg/m3 | 0.8172 ± 0.021 mPa·s | 722.5 ± 8 kg/m3 | 0.7851 ± 0.02 mPa·s | 715.4 ± 8 kg/m3 |  |  |  |  |  |  |  |  | CCCCCCCCCC [decane]
5 |  |  |  |  |  |  |  |  | 730 ± 8 kg/m3 | 0.9491 ± 0.024 mPa·s | 726.4 ± 8 kg/m3 | 0.8434 ± 0.022 mPa·s | 722.5 ± 8 kg/m3 | 0.8172 ± 0.021 mPa·s | 715.4 ± 8 kg/m3 | 0.7851 ± 0.02 mPa·s | CCCCCCCCCC [decane] + C1C[C@@H]2[C@H]3CC[C@H](C3)[C@@H]2C1
